Where no end group is shown, it is not given here.

One experiment has as its target T1, Cμ2.
T1 construct: Surface representations of the Cμ2 subdomain structure; His6; made in house; host or cells: Escherichia coli BL21 plyS
The conditions noted are these: read-out: KD of YxxΦ cargo peptide binding to Cμ2; cited from earlier work. The source says: page 20: Fig.S8 Details of FCHO C block binding to α -appendage and to Cµ2 A, B FCHO1 C block (claret) bound to AP2 α-appendage (blue). […] B 1.4 Å resolution 2Fo-Fc map contoured at 1.6σ. An apo structure of the α-appendage was used as MR search model (PDB 1W80 without ligands) – the direction of the peptide chain is clearly opposite to that of the published DP[FW], FxDxF motif/α-appendage complexes. C, D FCHO2 C block (claret ...

Another experiment has as its target T2, AP2 α-appendage (Mus musculus, UniProt P17427).
T2 construct: GST-tagged Cμ2 and α-appendage proteins were made as in ([51]); GST (cleaved yes); made in house; host or cells: Escherichia coli BL21 plyS
The experiment can be described thus: Isothermal titration calorimetry with α-appendage. The conditions noted are these: ITC. The format is binding. On the technique in general: Isothermal titration calorimetry measures the heat released or taken up as one component is titrated into another.

The subject of experiment [1] is BR4-mutated (K339A, K341A, K343A, and K345A) His6-MBP-Cμ2. The experiment can be described thus: GST pull-down of BR4-mutated His6-MBP-Cμ2. The format is binding. The conditions noted are these: Coomassie SDS-PAGE. The procedure: A measured amount of GST or GST-fusion protein was immobilized onto 60 μl of 50% slurry of GSH Sepharose beads in microfuge tubes and the volume made up to 750 μl with buffer. After incubation at 4°C with continuous mixing, the Sepharose beads were recovered by centrifugation (10,000g for 1 min), and the supernatants were removed. Each bead pellet was washed three times with cold assay buffer, and most of the buffer was carefully aspirated, leaving a final equivalent volume of ~50 μl.

T2 sequence (P17427 701-938 limits assumed): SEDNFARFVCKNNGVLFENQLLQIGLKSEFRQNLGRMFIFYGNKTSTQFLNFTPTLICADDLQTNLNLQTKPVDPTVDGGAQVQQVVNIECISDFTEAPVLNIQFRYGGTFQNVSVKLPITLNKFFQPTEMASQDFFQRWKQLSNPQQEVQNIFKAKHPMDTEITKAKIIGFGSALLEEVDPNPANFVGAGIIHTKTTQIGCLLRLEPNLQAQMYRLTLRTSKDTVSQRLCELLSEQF

Regarding “DYQRLN [TGN38, TGN38 YxxΦ cargo peptide (DYQRLN)]”, the Kd at Cμ2 is roughly 2 µM.
Consider “FCHO2 C: GST-FCHO2 C (residues 413 to 444), Fig. 4B construct ({GST}-SAPPNEKGTSDLLAWDPLFGPSLDSSSSSSLT; UniProt Q0JRZ9 413-444, looked up, fragment)”, for which the “n (stoichiometry) of C block peptide binding to α-appendage” value with AP2 α-appendage was 1.0.
On to SDLLAWDPLFG [FCHO2 C peptide], for which the Kd at AP2 α-appendage (100 mM tris pH 7.4, 150 mM NaCl, 0.25 mM TCEP, 12°C, mean ± SEM, minimum three independent runs, read-out: KD of C block peptide binding to α-appendage) lay within 100 to 200 µM.
Regarding “FCHO1 C: GST-FCHO1 C (residues 414 to 444), Fig. 4B construct ({GST}-SAPRTSSCAERLQSEEQVSKNLFGPPLESAF; UniProt O14526 414-444, looked up, fragment)”, the “n (stoichiometry) of C block peptide binding to α-appendage” value in the experiment with AP2 α-appendage is on record as 1.0.
Take “SERINC3-L10: GST SERINC-L10 (residues 354 to 404), Serinc3 loop binding Cμ2 only at BR4 (RTSTNSQVDKLTLSGSDSVILGDTTTSGASDEEDGQPRRAVDNEKEGVQYS; also: GST fusion, end not given here)”: the “binding to BR4-mutated Cμ2 compared with WT Cμ2” value in experiment [1] was “severely inhibited”.

The Kd is the constant that tells how readily two partners part at equilibrium.

Values taken from publication PMC9054013, “FCHO controls AP2’s initiating role in endocytosis through a PtdIns(4,5)P2-dependent switch” (Science Advances, 2022).
